From PMC4476580, “Novel Broad Spectrum Inhibitors Targeting the Flavivirus Methyltransferase” (PLoS ONE, 2015)
Where two headings read alike, the source gives them in different places.

Key:
WNV = test: Viral titer reduction assay; settings: for Inhibition of the WNV titer: highest concentration tested (200 μM)
[1] = MTT cell proliferation cytotoxicity assay; type: cell-based; settings: hamster; BHK-21 cells, MTT, 42 hours
Protocol: (§1) Cell-based assays were next performed to evaluate the biological activities of the selected compounds. The cytotoxicity of these compounds was first evaluated by using a MTT cell proliferation assay with a BHK-21 cell line (Table 1, fig 5), as we described previously. […] Therefore, these compounds were further investigated for their in vitro antiviral efficacy.
(§2) Cytotoxicity was measured using BHK-21 cells by a MTT cell proliferation assay using the 3-(4,5-dimethylthiazol-2-yl)-2,5-diphenyl tetrazolium bromide method (ATCC), as described previously.

BHK-21 cells = test: MTT cell proliferation cytotoxicity assay; type: cell-based; settings: for CC50 values times higher than IC50 values: BHK-21 CC50 versus in vitro IC50; for CC50: BHK-21 cells, MTT, 42 hours
Protocol: as §1, §2

WNV MTase [2] = target: T1, WNV MTase (West Nile virus, UniProt Q9Q6P4); test: biochemical
T1 construct: containing the N-terminal 300, 266, 265, and 272 amino acids of NS5 protein, respectively; made in house
T1 sequence (Q9Q6P4 2529-2794 limits assumed): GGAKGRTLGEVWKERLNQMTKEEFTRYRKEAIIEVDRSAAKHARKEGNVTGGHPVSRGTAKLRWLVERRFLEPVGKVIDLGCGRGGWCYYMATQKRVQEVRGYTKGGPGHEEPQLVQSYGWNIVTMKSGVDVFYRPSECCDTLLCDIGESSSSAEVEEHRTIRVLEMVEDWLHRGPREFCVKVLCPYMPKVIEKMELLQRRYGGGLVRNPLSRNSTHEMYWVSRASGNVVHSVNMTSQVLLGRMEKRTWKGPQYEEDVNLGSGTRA

WNV MTase [3] = target: T1, WNV MTase; test: biochemical; type: biochemical
DENV2 MTase [4] = target: T2, DENV2 MTase (Dengue virus type 2, UniProt P14340); type: biochemical; settings: read-out: IC50 N7
T2 construct: containing the N-terminal 300, 266, 265, and 272 amino acids of NS5 protein, respectively; made in house
T2 sequence (P14340 2493-2755 limits assumed): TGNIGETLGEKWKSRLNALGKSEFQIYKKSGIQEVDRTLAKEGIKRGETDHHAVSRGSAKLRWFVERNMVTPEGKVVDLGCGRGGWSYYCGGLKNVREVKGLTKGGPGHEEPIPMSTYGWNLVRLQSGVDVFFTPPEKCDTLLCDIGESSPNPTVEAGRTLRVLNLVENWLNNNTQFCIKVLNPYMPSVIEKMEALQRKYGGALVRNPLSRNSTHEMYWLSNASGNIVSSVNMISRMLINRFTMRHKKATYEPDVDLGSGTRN

DENV3 MTase [5] = target: T3, DENV3 MTase (Dengue virus type 3, UniProt Q6YMS4); type: biochemical; settings: read-out: IC50 2’-O
T3 construct: containing the N-terminal 300, 266, 265, and 272 amino acids of NS5 protein, respectively; made in house
T3 sequence (Q6YMS4 2492-2753): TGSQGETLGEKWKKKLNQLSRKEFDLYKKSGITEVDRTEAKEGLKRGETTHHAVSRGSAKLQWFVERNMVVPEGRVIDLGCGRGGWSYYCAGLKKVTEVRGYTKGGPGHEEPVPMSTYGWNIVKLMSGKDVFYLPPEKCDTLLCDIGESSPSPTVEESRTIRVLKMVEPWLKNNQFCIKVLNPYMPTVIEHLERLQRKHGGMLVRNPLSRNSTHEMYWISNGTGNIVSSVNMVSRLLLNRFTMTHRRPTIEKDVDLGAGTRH

DENV3 MTase [6] = target: T3, DENV3 MTase; type: biochemical; settings: read-out: IC50 N7
DENV2 MTase [7] = target: T2, DENV2 MTase; type: biochemical; settings: read-out: IC50 2’-O
YFV MTase [8] = target: T4, YFV MTase (Yellow fever virus, UniProt P03314); type: biochemical; settings: read-out: IC50 2’-O
T4 sequence (P03314 2507-2771 limits assumed): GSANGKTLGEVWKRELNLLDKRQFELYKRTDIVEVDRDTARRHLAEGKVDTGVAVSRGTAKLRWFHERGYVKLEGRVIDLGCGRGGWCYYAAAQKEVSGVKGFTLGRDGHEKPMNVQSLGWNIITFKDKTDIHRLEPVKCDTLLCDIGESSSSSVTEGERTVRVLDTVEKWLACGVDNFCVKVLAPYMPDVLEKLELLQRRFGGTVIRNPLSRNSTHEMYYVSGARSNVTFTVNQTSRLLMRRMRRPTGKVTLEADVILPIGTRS

YFV MTase [9] = target: T4, YFV MTase; type: biochemical; settings: read-out: IC50 N7

Compound: O=C1CN2CCN(CC2)CC(=O)Nc2ccc(cc2)S(=O)(=O)c2ccc(cc2)NC(=O)CN2CCN(CC2)CC(=O)Nc2ccc(cc2)S(=O)(=O)c2ccc(cc2)N1 [NSC 36806]
- EC50 (WNV; West Nile virus, 42 h): > 200 µM
- Inhibition of the WNV titer (WNV): did not inhibit the WNV titer
- CC50 at 42 h [1]: 362 µM
- CC50 values times higher than IC50 values (BHK-21 cells): ~10
- IC50 (WNV MTase [2]): > 300 µM
- IC50 (WNV MTase [3]; IC50 N7 No CHAPS): 39 µM
- IC50 (WNV MTase [3]; IC50 N7 with CHAPS): 35.5 µM

Compound: O=C1c2cc([N+](=O)[O-])ccc2-c2ccc3c4ccc5c6c(ccc(c7ccc1c2c73)c64)C(=O)c1cc([N+](=O)[O-])ccc1-5 [NSC 51535]
- CC50 at 42 h [1]: 5.7 µM
- IC50 (WNV MTase [2]; read-out: IC50 2’-O with CHAPS): 5.6 µM
- IC50 (WNV MTase [3]; read-out: IC50 N7 No CHAPS): 3.9 µM

Compound: O=C1c2ccccc2C(=O)c2c1ccc(N1C(=O)c3ccccc3C1=O)c2-c1c(N2C(=O)c3ccccc3C2=O)ccc2c1C(=O)c1ccccc1C2=O [NSC 115448]
- CC50 at 42 h [1]: 155 µM
- IC50 (WNV MTase [2]): 16.6 µM
- IC50 (WNV MTase [3]; IC50 N7 No CHAPS): 15.7 µM
- IC50 (WNV MTase [3]; IC50 N7 with CHAPS): 225 µM

Compound: O=c1c2ccccc2c2ccccc2c(=O)n1-c1cc2c3ccccc3ccc2c2ccccc12 [NSC 128609]
- CC50 at 42 h [1]: 192 µM
- IC50 (WNV MTase [2]): 101 µM
- IC50 (WNV MTase [3]; IC50 N7 No CHAPS): 40 µM

Compound: COc1ccc2cc1Oc1ccc(cc1)CC1c3c(cc(OC)c4c3Oc3cc5c(cc3O4)CCNC5C2)CCN1C (stereo not drawn) [NSC 181486]
- CC50 at 42 h [1]: 4.8 µM
- IC50 (WNV MTase [2]): > 300 µM
- IC50 (WNV MTase [3]; IC50 N7 No CHAPS): 25.9 µM
- IC50 (WNV MTase [3]; IC50 N7 with CHAPS): 34.7 µM

Compound: Cc1ccc(NC(=O)c2cc3ccccc3cc2O)c(C)c1.Cc1ccc(NC(=O)c2cc3ccccc3cc2O)c(C)c1.[Ni] [NSC 306698]
- CC50 (BHK-21 cells): 32 µM
- IC50 (WNV MTase [2]; read-out: IC50 2’-O with CHAPS): 49.1 µM
- IC50 (WNV MTase [3]; read-out: IC50 N7 No CHAPS): 45 µM

Compound: Cc1nn(-c2ccc(S(=O)(=O)[O-])cc2)c([O-])c1N=Nc1ccc(-c2ccc(N=Nc3ccc4c(S(=O)(=O)[O-])cc(S(=O)(=O)[O-])c(N)c4c3[O-])c([O-])c2)cc1[O-].[Cu+2].[Cu+2].[H+].[H+].[H+] [NSC 306711]
- EC50 (WNV; BHK cells infected with WNV, MOI 0.1, 42 hours post-infection, plaque assay on Vero cells): 1 µM
- IC50 (DENV2 MTase [4]): 5.3 µM
- IC50 (DENV3 MTase [5]): 4.7 µM
- CC50 values times higher than IC50 values (BHK-21 cells): ~10
- CC50 (BHK-21 cells): 332 µM
- IC50 (WNV MTase [2]; read-out: IC50 2’-O with CHAPS): 4.3 µM
- IC50 (DENV3 MTase [6]): 36 µM
- IC50 (DENV2 MTase [7]): 6.9 µM
- IC50 (YFV MTase [8]): 1.1 µM
- IC50 (YFV MTase [9]): 1.2 µM
- IC50 (WNV MTase [3]; read-out: IC50 N7 No CHAPS): 0.87 µM
- IC50 (WNV MTase [3]; read-out: IC50 N7 with CHAPS): 2.3 µM

Compound: CN1CCN(c2ccc3[nH]c(-c4ccc5[nH]c(-c6ccc(O)cc6)nc5c4)nc3c2)CC1 [NSC 322921]
- EC50 (WNV; West Nile virus, 42 h): > 200 µM
- Inhibition of the WNV titer (WNV): did not inhibit the WNV titer
- CC50 at 42 h [1]: > 500 µM
- CC50 values times higher than IC50 values (BHK-21 cells): ~10
- IC50 (WNV MTase [2]): > 300 µM
- IC50 (WNV MTase [3]; IC50 N7 No CHAPS): 29.9 µM
- IC50 (WNV MTase [3]; IC50 N7 with CHAPS): 26.5 µM

Compound: Ic1ccc2c(c1)N(c1ccccc1)c1cc(Nc3ccc4c(c3)N(c3ccccc3)c3cc(I)ccc3N4)ccc1N2 [NSC 402959]
- CC50 at 42 h [1]: 14.6 µM
- IC50 (WNV MTase [2]; read-out: IC50 2’-O with CHAPS): 6.2 µM
- IC50 (WNV MTase [3]; read-out: IC50 N7 No CHAPS): 9.8 µM
- IC50 (WNV MTase [3]; read-out: IC50 N7 with CHAPS): 30.8 µM

Compound: CC1=C(Nc2c(C)cc(O)cc2O)C(=O)C=c2oc3c(c21)C(C)=C(Nc1c(C)cc(O)cc1O)C(=O)C=3 [NSC 610930]
- EC50 (WNV; West Nile virus, 42 h): 12.6 µM
- CC50 at 42 h [1]: 117 µM
- CC50 values times higher than IC50 values (BHK-21 cells): ~10
- IC50 (WNV MTase [2]): 5.6 µM
- IC50 (WNV MTase [3]; IC50 N7 No CHAPS): 4.2 µM
- IC50 (WNV MTase [3]; IC50 N7 with CHAPS): 18.2 µM

Compound: Nc1ncnc2c1ncn2[C@@H]1O[C@H](C[C@@H](N)CC[C@H](N)C(=O)O)[C@@H](O)[C@H]1O [SIN, sinefungin, reference compound]
- Inhibition of the N7 activity of the WNV MTase (WNV MTase [3]): ~ 80%
